# Results: patent US12139505B2, “Compositions useful in therapy of autophagy-related pathologies, and methods of making and using the same” (The University of Toledo, priority 2017, dated 2024)
# Entries after “also recorded” stand apart in the source; their conditions may differ.
# What was measured:
# [1] = tested on: gmr-Gal4;UAS-C9orf72polyGR36 flies; assay: Fly eye neurodegeneration assay, C9orf72 ALS model; format: in vivo, Drosophila melanogaster
# Description: The base for the food was a cornmeal agar product, Nutri-fly BF (Genesee Scientific, Box of 10, 1-liter bags, Cat #66-112). In a 2 L beaker, 1 L of ultrapure water was heated to […], with the stir bar speed set to 600. To the beaker, one bag of Nutri-fly BF was added in small portions. The beaker was covered to maintain temperature (monitored with an inserted thermometer) while stirring as rapidly as possible until the temperature reached 97° C. The food was stirred at this temperature for 10 minutes using a wooden spoon/spatula, then allowed to cool to approximately 65° C. with continuous stirring (magnetic bar). At 65° C., while maintaining constant stirring, 12 mL of Tegosept was added followed by 7 mL of propionic acid solution. To be used as fly maintenance food, the food was allowed to cool to 55° C. and 4 mL of the food was aliquoted (to a depth of approximately 1 inch) into individual vials with mity drosophila plugs (VWR #75813-162 and #10054-506). For use as a drug delivery vehicle, the food was allowed to cool to room temperature while covered with aluminum foil, then sealed with parafilm stored at 4° C. […] To prepare the drug-infused-food, about half of the calculated food, accurately measured, was added to a 250 mL beaker, followed by the drug (no carrier solvent is used). […]
# PINK1^B9 flies = assay: Fly climbing assay; format: in vivo, Drosophila melanogaster; conditions: 100 μM in media
# Description: 2-n-hexyl-LKE-P was dissolved in DMSO and supplemented into a warm solution of minimal media (5% sucrose, 2% agarose and water, 60° C.) to a final concentration of 10, 100 and 1000 μM. Freshly eclosed adult flies were transferred to minimal media containing the drug for one day followed by the experiments. The locomotive ability of flies was assessed 10 days after eclosion via a climbing assay. 15 flies were transferred to a tube marked 17.5 cm from the bottom and a digital camera, connected directly to a PC, recorded flies as they cross the line, continuously, for two minutes. Analysis of the recorded video was done by recording the number of flies that remain above the 17.5 cm line every ten seconds. If a fly climbs back down or falls, that fly is removed from the total count at the next 10 second time point. The percentage of flies remaining above the line at the 120 second time point was recorded. The 120 second time point was chosen because it has been previously determined that this is the average amount of time required for all untreated flies to cross the 17.5 cm mark.
smiles,measurement,setting,value
CCCCCCC1=C(P(=O)(O)O)N[C@H](C(=O)OCC)CS1 [2-n-hexyl-LKE-P],failure to eclose from the pupa,[1]; GR dipeptides at repeat number of 100 in the eyes,not able to rescue this phenotype
same,eye phenotype,"[1]; polyGR36 in eyes, 1 and 2 mM in food throughout lifespan",alleviate the eye phenotype in a concentration-dependent manner
same,climbing ability of PINK1^B9 flies,PINK1^B9 flies,statistically significant improvement in the climbing ability; also recorded: significant improvement of PINK1^B9 climbing ability
